In PubChem BioAssay AID1845198 (Molecular Pharmacology Branch, DTP, NCI, 2023):
Several values for one entry are separate records, joined by “and”; a condition that tells them apart may be missing. Identical values can stand only once.

System: 425362-245-T-J1 tumor spheroids, viability % test/control
Assay: Anticancer human tumor 425362-245-T-J1 patient-derived melanoma cell line growth inhibition
Conditions: spheroids with HUVEC and MSC; for viability, T/C: stronger effect = lower value
In short: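 Complex tumor spheroids combined malignant cells with endothelial cells and mesenchymal stem cells. DNA-damaging drugs and DNA repair inhibitors were tested alone and in combination, at half-log dilutions down from clinical Cmax (top 10 microM if Cmax unknown), 0.25% DMSO final.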

[1] = curve of first compound, second compound 30 pM
[2] = curve of first compound, second compound 94.9 pM
[3] = curve of first compound, second compound 0.0003 µM
[4] = curve of first compound, second compound 0.000949 µM
[5] = curve of first compound, second compound 0.003 µM
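Note: spheroids exposed to agents for 7 days.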
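Throughout, for viability, T/C: 100% = DMSO vehicle control viability.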

Work on `O=C(c1cc(Cc2n[nH]c(=O)c3ccccc23)ccc1F)N1CCN(C(=O)C2CC2)CC1` + COc1cc2c(cc1O)CCNC21CSC2c3c(OC(C)=O)c(C)c4c(c3C(COC1=O)N1C(O)C3Cc5cc(C)c(OC)c(O)c5C(C21)N3C)OCO4 yielded an IC50 [1] of 2.11 µM, an IC50 [2] of 1.42 µM and an IC50 [3] of less than 0.0949 µM. It also gave an IC50 [4] of less than 0.0949 µM, an IC50 [5] of less than 0.0949 µM and a viability, T/C (second compound 30 pM, first compound 0.0949 µM) of 87.2%. The viability, T/C (second compound 30 pM, first compound 0.3 µM) was 93.6%, the viability, T/C (second compound 30 pM, first compound 0.949 µM) was 67.9% and the viability, T/C (second compound 30 pM, first compound 3 µM) was 43.4%. For the same molecule, the viability, T/C (second compound 30 pM, first compound 9.49 µM) was 10.1%, the viability, T/C (second compound 30 pM, first compound 30 µM) was 6.76% and the viability, T/C (second compound 94.9 pM, first compound 0.0949 µM) was 83.1%. It also gave a viability, T/C (second compound 94.9 pM, first compound 0.3 µM) of 79.2%, a viability, T/C (second compound 94.9 pM, first compound 0.949 µM) of 56.2% and a viability, T/C (second compound 94.9 pM, first compound 3 µM) of 36.3%. For the same molecule, the viability, T/C (second compound 94.9 pM, first compound 9.49 µM) was 5.46%, the viability, T/C (second compound 94.9 pM, first compound 30 µM) was 4.13% and the viability, T/C (second compound 0.0003 µM, first compound 0.0949 µM) was 32.6%. For the same molecule, the viability, T/C (second compound 0.0003 µM, first compound 0.3 µM) was 35.5%, the viability, T/C (second compound 0.0003 µM, first compound 0.949 µM) was 22.8% and the viability, T/C (second compound 0.0003 µM, first compound 3 µM) was 7.06%. For the same molecule, the viability, T/C (second compound 0.0003 µM, first compound 9.49 µM) was 1.54%, the viability, T/C (second compound 0.0003 µM, first compound 30 µM) was 1.07% and the viability, T/C (second compound 0.000949 µM, first compound 0.0949 µM) was 0.47%. The viability, T/C (second compound 0.000949 µM, first compound 0.3 µM) was 0.29%, the viability, T/C (second compound 0.000949 µM, first compound 0.949 µM) was 0.17% and the viability, T/C (second compound 0.000949 µM, first compound 3 µM) was 0.09%. For the same molecule, the viability, T/C (second compound 0.000949 µM, first compound 9.49 µM) was 0.04%, the viability, T/C (second compound 0.000949 µM, first compound 30 µM) was 0.16% and the viability, T/C (second compound 0.003 µM, first compound 0.0949 µM) was 0.3%. It also gave a viability, T/C (second compound 0.003 µM, first compound 0.3 µM) of 0.32%, a viability, T/C (second compound 0.003 µM, first compound 0.949 µM) of 0.26% and a viability, T/C (second compound 0.003 µM, first compound 3 µM) of 0.14%. The viability, T/C (second compound 0.003 µM, first compound 9.49 µM) was 0.15% and the viability, T/C (second compound 0.003 µM, first compound 30 µM) was 0.3%.
With `CC(C)n1c(=O)n(C)c2cnc3cc(F)c(-c4ccc(OCCCN5CCCCC5)nc4)cc3c21` the viability, T/C (compound 0.0316 µM) was 56.5% and 67.4% and 67.2%, the viability, T/C (compound 0.1 µM) was 43.4% and 60.3% and 69.2% and the viability, T/C (compound 0.316 µM) was 44.1% and 39.9% and 36.1%. For the same molecule, the viability, T/C (compound 1 µM) was 27.5% and 20.1% and 23.2%, the viability, T/C (compound 3.16 µM) was 17.4% and 14.7% and 14.3% and the viability, T/C (compound 10 µM) was 7.66% and 5.49% and 5.26%. For the same molecule, the IC50 (curve of compound) was 0.0721 µM and 0.175 µM and 0.198 µM.
Work on `COc1cc(C)[nH]c(=O)c1CN1CCc2c(Cl)cc(C(OC)C3COC3)c(Cl)c2C1=O` (configuration not stated) + COc1cc2c(cc1O)CCNC21CSC2c3c(OC(C)=O)c(C)c4c(c3C(COC1=O)N1C(O)C3Cc5cc(C)c(OC)c(O)c5C(C21)N3C)OCO4 yielded an IC50 [1] greater than 10 µM, an IC50 [2] greater than 10 µM and an IC50 [3] of 0.362 µM. It also gave an IC50 [4] of less than 0.0316 µM, an IC50 [5] of less than 0.0316 µM and a viability, T/C (second compound 30 pM, first compound 0.0316 µM) of 104%. The viability, T/C (second compound 30 pM, first compound 0.1 µM) was 104%, the viability, T/C (second compound 30 pM, first compound 0.316 µM) was 100% and the viability, T/C (second compound 30 pM, first compound 1 µM) was 99.2%. For the same molecule, the viability, T/C (second compound 30 pM, first compound 3.16 µM) was 86.5%, the viability, T/C (second compound 30 pM, first compound 10 µM) was 92.5% and the viability, T/C (second compound 94.9 pM, first compound 0.0316 µM) was 98.4%. It also gave a viability, T/C (second compound 94.9 pM, first compound 0.1 µM) of 93.9%, a viability, T/C (second compound 94.9 pM, first compound 0.316 µM) of 98.7% and a viability, T/C (second compound 94.9 pM, first compound 1 µM) of 95.1%. For the same molecule, the viability, T/C (second compound 94.9 pM, first compound 3.16 µM) was 87%, the viability, T/C (second compound 94.9 pM, first compound 10 µM) was 74.2% and the viability, T/C (second compound 0.0003 µM, first compound 0.0316 µM) was 68%. For the same molecule, the viability, T/C (second compound 0.0003 µM, first compound 0.1 µM) was 48.1%, the viability, T/C (second compound 0.0003 µM, first compound 0.316 µM) was 60.5% and the viability, T/C (second compound 0.0003 µM, first compound 1 µM) was 40.5%. It also gave a viability, T/C (second compound 0.0003 µM, first compound 3.16 µM) of 30.2%, a viability, T/C (second compound 0.0003 µM, first compound 10 µM) of 23.1% and a viability, T/C (second compound 0.000949 µM, first compound 0.0316 µM) of 0.53%. It also gave a viability, T/C (second compound 0.000949 µM, first compound 0.1 µM) of 0.46%, a viability, T/C (second compound 0.000949 µM, first compound 0.316 µM) of 1.6% and a viability, T/C (second compound 0.000949 µM, first compound 1 µM) of 0.35%. The viability, T/C (second compound 0.000949 µM, first compound 3.16 µM) was 0.31%, the viability, T/C (second compound 0.000949 µM, first compound 10 µM) was 0.31% and the viability, T/C (second compound 0.003 µM, first compound 0.0316 µM) was 0.35%. The viability, T/C (second compound 0.003 µM, first compound 0.1 µM) was 0.38%, the viability, T/C (second compound 0.003 µM, first compound 0.316 µM) was 0.36% and the viability, T/C (second compound 0.003 µM, first compound 1 µM) was 0.31%. For the same molecule, the viability, T/C (second compound 0.003 µM, first compound 3.16 µM) was 0.29% and the viability, T/C (second compound 0.003 µM, first compound 10 µM) was 0.35%.
